The results in this text go back to ChEMBL document CHEMBL1124305, “Synthesis and immunological evaluation of N-terminal, noncrossreactive tachykinin antigens” (J Med Chem, 1988).

The source made the active and inactive calls. The rule behind the calls is not given here.

What all share (assay type): functional, organism-based
For assay [1], the species on record is Mus musculus. The experiment in a line: Determination of serum specificity with immunogen 1-MBSA in ELISA against the respective tachykinins of mice; - indicates Nondetectable interaction. On the technique in general: In an ELISA, binding on a coated surface is turned into a signal by an enzyme label.
The species named for assay [2] is Mus musculus. The experiment in a line: Determination of serum specificity with immunogen 3-MBSA in ELISA against the respective tachykinins of mice; - indicates Nondetectable interaction.
The species entered for assay [3] is Mus musculus. Kind of assay: Determination of serum specificity with immunogen 2-MBSA in ELISA against the respective tachykinins of mice; +++ indicates Strong recognition.

As for `CSCC[C@H](NC(=O)[C@H](CC(C)C)NC(=O)CNC(=O)[C@@H](NC(=O)[C@H](Cc1ccccc1)NC(=O)[C@H](CO)NC(=O)[C@H](CC(=O)O)NC(=O)[C@@H](NC(=O)[C@H](CCCCN)NC(=O)[C@@H](N)Cc1c[nH]cn1)[C@@H](C)O)C(C)C)C(N)=O`, the Specificity entry in the assay filed under Mus musculus [1] and in the assay listed under Mus musculus [2] was “inactive” throughout. For the same compound, in the assay listed under Mus musculus [3], the Specificity entry was “Active”.
